Data on six compounds can be found in the NIST ThermoML archive (doi:10.1016/j.fluid.2008.06.012).

One may read the mass density as mass per unit of volume. One may read the refractive index as a measure of how strongly the sample bends light.

Molecules are shown by their SMILES. ± gives the expanded uncertainty stated by the source.

The conditions of data set [1]: 298.15 K, 101.33 kPa, Liquid.
Data set [2] can be described thus: refractive index (Na D-line) (dimensionless). Particulars: 298.15 K; 101.33 kPa; Liquid; Standard Abbe refractometry.

As to `CCOS(=O)(=O)[O-].CCn1cc[n+](C)c1` [1-ethyl-3-methylimidazolium ethyl sulfate], in data set [1] (Vibrating tube method), the mass density was 1238.17 ± 8.3 kg/m3. For the same compound, the refractive index in data set [2] worked out at 1.47903 ± 0.0012.
In the case of `CCCCCCCCCCCC` [dodecane], the mass density in data set [1] is reported as 745.32 ± 0.91 kg/m3. For the same compound, in data set [2], the refractive index stood at 1.42011 ± 0.0007.
On the same counts, the results for `CCCCCCC` [heptane] are 679.47 ± 0.66 kg/m3 and 1.38517 ± 0.00068.
Turning to `CCCCCCCCCCCCCCCC` [hexadecane], in data set [1], the mass density is listed as 771.15 ± 0.85 kg/m3. In addition, in data set [2], the refractive index worked out at 1.43232 ± 0.0007.
On the same counts, the results for `CCCCCC` [hexane] are 655.06 ± 1.1 kg/m3 and 1.37287 ± 0.0007.
As to `c1ccsc1` [thiophene], the mass density in data set [1] is 1058.59 ± 0.28 kg/m3. Further, the refractive index in data set [2] was 1.5253 ± 0.00068.
